Assay results taken from ChEMBL document CHEMBL4834480, “Discovery of 3,5-Dimethyl-4-Sulfonyl-1H-Pyrrole-Based Myeloid Cell Leukemia 1 Inhibitors with High Affinity, Selectivity, and Oral Bioavailability” (J Med Chem, 2021).
pIC50, pKi: −log10 of the molar value. Values belong to the compound of their own block, whether it stands above or below them. Activity calls are given as the source filed them. The rule behind the calls is not given here.

Key:
[1] = molecular target: T1, Induced myeloid leukemia cell differentiation protein Mcl-1 (Homo sapiens, UniProt Q07820); experiment: Inhibition of FITC-labeled Bak BH3 peptide binding to GST-tagged MCL1 (171 to 327 residues) (unknown origin) expressed in Escherichia coli BL21 (DE3) incubated for 30 mins fluorescence polarization-based competitive binding assay
Bcl-2-like protein 1 = Bcl-2-like protein 1 (Homo sapiens, UniProt Q07817); experiment: Inhibition of BCL-XL(unknown origin) at 10 uM incubated for 120 mins by TR-FRET assay relative to control
[2] = molecular target: T2, Bcl-2-related protein A1 (Homo sapiens) (UniProt Q16548); experiment: Inhibition of FITC-labeled Bak BH3 peptide binding to GST-tagged BFL1 (1 to 151 residues) (unknown origin) expressed in Escherichia coli BL21 (DE3) at 10 uM incubated for 30 mins fluorescence polarization-based competitive binding assay relative to control
T2 sequence (whole entry): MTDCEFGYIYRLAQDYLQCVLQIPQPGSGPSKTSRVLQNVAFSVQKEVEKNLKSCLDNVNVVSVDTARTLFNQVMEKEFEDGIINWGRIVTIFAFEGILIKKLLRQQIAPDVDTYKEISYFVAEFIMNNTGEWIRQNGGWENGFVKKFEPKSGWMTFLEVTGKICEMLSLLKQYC

NCI-H23 = experiment: Antiproliferative activity against human NCI-H23 cells assessed as decrease in cell viability measured after 72 hrs by MTT assay; format: functional, cell-based; details: NCI-H23, 72 h
K562 [3] = experiment: Antiproliferative activity against human K562 cells assessed as decrease in cell viability measured after 72 hrs by MTT assay; format: functional, cell-based; details: K562, 72 h
SK-BR-3 = experiment: Antiproliferative activity against human SK-BR-3 cells assessed as decrease in cell viability measured after 72 hrs by MTT assay; format: functional, cell-based; details: SK-BR-3, 72 h
MV4-11 [4] = experiment: Antiproliferative activity against human MV4-11 cells assessed as decrease in cell viability measured after 72 hrs by MTT assay; format: functional, cell-based; details: MV4-11, 72 h
[5] = molecular target: Apoptosis regulator Bcl-2 (Homo sapiens, UniProt P10415); experiment: Inhibition of FITC-labeled Bak BH3 peptide binding to GST-tagged BCL2 (1 to 205 residues) (unknown origin) expressed in Escherichia coli BL21 (DE3) at 10 uM incubated for 30 mins fluorescence polarization-based competitive binding assay relative to control
NCI-H929 [6] = experiment: Antiproliferative activity against human NCI-H929 cells assessed as decrease in cell viability measured after 72 hrs by MTT assay; format: functional, cell-based; details: NCI-H929, 72 h
K562 [7] = experiment: Induction of apoptosis in human K562 cells assessed as activation of caspase 7 up to 5 uM after 4 hrs by luminescence based microplate reader assay; format: functional, cell-based; details: dose microM <=5, time 4.0 hrs
K562 [8] = experiment: Induction of apoptosis in human K562 cells assessed as activation of caspase 3 up to 5 uM after 4 hrs by luminescence based microplate reader assay; format: functional, cell-based; details: dose microM <=5, time 4.0 hrs
NCI-H929 [9] = experiment: Induction of apoptosis in human NCI-H929 cells measured after 48 hrs by annexinV-FITC/propidium iodide staining based flow cytometry analysis; format: functional, cell-based; details: dose 1-5 µM
NCI-H929 [10] = experiment: Induction of apoptosis in human NCI-H929 cells assessed as upregulation of cleaved PARP measured after 48 hrs by Western blot analysis; format: functional, cell-based; details: dose microM <=5, time 48.0 hrs
K562 [11] = experiment: Induction of apoptosis in human K562 cells assessed as upregulation of cleaved PARP up to 5 uM measured after 48 hrs by Western blot analysis; format: functional, cell-based; details: dose microM <=5, time 48.0 hrs
MV4-11 [12] = experiment: Antitumor activity against human MV4-11 cells xenografted in BALB/c nude mouse assessed as tumor growth inhibition by measuring T/C ratio at 10 mg/kg, ip administered every two days for 14 days relative to control; format: functional; details: time 14 day
MV4-11 [13] = experiment: Induction of apoptosis in human MV4-11 cells xenografted in BALB/c nude mouse assessed as induction of PARP cleavage at 10 mg/kg, ip administered every two days for 14 days by Western blot analysis; format: functional, organism-based; details: time 14.0 day
[14] = molecular target: T1, Induced myeloid leukemia cell differentiation protein Mcl-1; experiment: Inhibition of FITC-labeled Bak BH3 peptide binding to GST-tagged MCL1 (171 to 327 residues) (unknown origin) expressed in Escherichia coli BL21 (DE3) at 30 uM incubated for 30 mins fluorescence polarization-based competitive binding assay relative to control

Chain of Apoptosis regulator Bcl-2 (P10415 whole entry, the tested form may be a part): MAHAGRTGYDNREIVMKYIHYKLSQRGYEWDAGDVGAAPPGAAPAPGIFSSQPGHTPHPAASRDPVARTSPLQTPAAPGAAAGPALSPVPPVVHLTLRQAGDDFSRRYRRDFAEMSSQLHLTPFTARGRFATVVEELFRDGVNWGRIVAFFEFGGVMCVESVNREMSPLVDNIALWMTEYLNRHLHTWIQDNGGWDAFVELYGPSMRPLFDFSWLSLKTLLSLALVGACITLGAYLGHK
Chain of Bcl-2-like protein 1 (Q07817 whole entry, the tested form may be a part): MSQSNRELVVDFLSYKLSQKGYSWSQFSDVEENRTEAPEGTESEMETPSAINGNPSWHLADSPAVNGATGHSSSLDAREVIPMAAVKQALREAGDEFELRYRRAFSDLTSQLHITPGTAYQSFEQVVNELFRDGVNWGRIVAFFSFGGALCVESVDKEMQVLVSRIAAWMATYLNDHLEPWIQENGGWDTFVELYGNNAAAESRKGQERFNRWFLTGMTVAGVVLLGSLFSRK
T1 sequence (Q07820 whole entry, the tested form may be a part): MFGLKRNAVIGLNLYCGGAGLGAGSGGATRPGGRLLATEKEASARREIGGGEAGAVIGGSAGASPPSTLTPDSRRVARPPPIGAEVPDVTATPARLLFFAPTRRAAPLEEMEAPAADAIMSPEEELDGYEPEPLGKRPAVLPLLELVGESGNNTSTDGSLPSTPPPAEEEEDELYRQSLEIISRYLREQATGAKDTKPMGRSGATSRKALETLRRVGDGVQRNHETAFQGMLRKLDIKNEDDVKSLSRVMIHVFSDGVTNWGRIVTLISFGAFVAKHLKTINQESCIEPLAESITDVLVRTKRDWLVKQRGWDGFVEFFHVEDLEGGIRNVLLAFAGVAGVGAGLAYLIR

Structure (SMILES): Cc1cc(OCCCn2c(C)c(S(=O)(=O)c3ccc([N+](=O)[O-])cc3)c(C)c2C(=O)O)cc(C)c1Cl
pKi [1]: 6.38

Structure (SMILES): Cc1cc(OCCCn2c(C)c(S(=O)(=O)C3CCCCC3)c(C)c2C(=O)O)cc(C)c1Cl
pKi [1]: < 5.00

Structure (SMILES): Cc1cc(OCCCn2c(C)c(S(=O)(=O)c3ccc(Br)cc3)c(C)c2C(=O)O)cc(C)c1Cl
inhibition (Bcl-2-like protein 1): 13% | inhibition [2]: 4.14% | pIC50 (NCI-H23): 5.42 | pKi [1]: 7.40 | pIC50 (K562 [3]): < 4.52 | pIC50 (SK-BR-3): 5.25 | pIC50 (MV4-11 [4]): 5.77 | inhibition [5]: 11.6% | pIC50 (NCI-H929 [6]): 6.32

Structure (SMILES): Cc1cc(C)cc(S(=O)(=O)c2c(C)c(C(=O)O)n(CCCOc3cc(C)c(Cl)c(C)c3)c2C)c1
pKi [1]: < 5.00

Structure (SMILES): Cc1cc(OCCCn2c(C)c(S(=O)(=O)c3ccc(C(C)(C)C)cc3)c(C)c2C(=O)O)cc(C)c1Cl
pKi [1]: 6.47

Structure (SMILES): Cc1cc(OCCCn2c(C)c(S(=O)(=O)c3ccc(O)cc3)c(C)c2C(=O)O)cc(C)c1Cl
pIC50 (NCI-H23): 5.67 | pKi [1]: 7.74 | pIC50 (K562 [3]): 4.83 | pIC50 (SK-BR-3): 5.15 | pIC50 (MV4-11 [4]): 5.69 | pIC50 (NCI-H929 [6]): 5.86

Structure (SMILES): Cc1cc(OCCCn2c(C)c(S(=O)(=O)c3ccc(N)cc3)c(C)c2C(=O)O)cc(C)c1Cl
pKi [1]: 6.47

Structure (SMILES): CC(=O)c1cccc(S(=O)(=O)c2c(C)c(C(=O)O)n(CCCOc3cc(C)c(Cl)c(C)c3)c2C)c1
pKi [1]: 6.26

Structure (SMILES): CCc1ccc(S(=O)(=O)c2c(C)c(C(=O)O)n(CCCOc3cc(C)c(Cl)c(C)c3)c2C)cc1
inhibition (Bcl-2-like protein 1): 36% | inhibition [2]: 8.77% | pIC50 (NCI-H23): 5.27 | pKi [1]: 7.15 | pIC50 (K562 [3]): < 4.52 | pIC50 (SK-BR-3): 5.41 | pIC50 (MV4-11 [4]): 5.59 | inhibition [5]: 12.4% | pIC50 (NCI-H929 [6]): 6.31

Structure (SMILES): Cc1cc(OCCCn2c(C)c(S(=O)(=O)c3ccc(C(C)C)cc3)c(C)c2C(=O)O)cc(C)c1Cl
pKi [1]: 6.77

Structure (SMILES): Cc1ccc(Cc2cc(C(=O)O)n(CCCOc3cc(C)c(Cl)c(C)c3)c2)cc1
pKi [1]: 5.27 | inhibition [14]: 53%

More lines, main results first:

pKi [1]: 6.37
Structure (SMILES): COc1ccccc1S(=O)(=O)c1c(C)c(C(=O)O)n(CCCOc2cc(C)c(Cl)c(C)c2)c1C

inhibition (Bcl-2-like protein 1): 27% | inhibition [2]: 1.82% | pIC50 (NCI-H23): 5.01 | pKi [1]: 7.15 | pIC50 (K562 [3]): < 4.52 | pIC50 (SK-BR-3): 5.20 | pIC50 (MV4-11 [4]): 5.81 | inhibition [5]: 14.2% | pIC50 (NCI-H929 [6]): 6.41
Structure (SMILES): COc1ccc(S(=O)(=O)c2c(C)c(C(=O)O)n(CCCOc3cc(C)c(Cl)c(C)c3)c2C)cc1

pKi [1]: 6.70
Structure (SMILES): Cc1cc(OCCCn2c(C)c(S(=O)(=O)c3ccc(Oc4ccccc4)cc3)c(C)c2C(=O)O)cc(C)c1Cl

pIC50 (NCI-H23): 4.87 | pKi [1]: 8.22 | pIC50 (K562 [3]): < 4.52 | pIC50 (SK-BR-3): 5.37 | pIC50 (MV4-11 [4]): 5.81 | pIC50 (NCI-H929 [6]): 6.05
Structure (SMILES): Cc1nn(C)c(COc2ccc(N3CCN(S(=O)(=O)N(C)C)CC3)cc2)c1-c1cccc2c(CCCOc3cccc4ccccc34)c(C(=O)O)n(CCN3CCOCC3)c12
Activity (K562 [7]): inactive | Activity (K562 [8]): inactive | Activity (NCI-H929 [9]): Dose-Dependent Effect | Activity (NCI-H929 [10]): Dose-Dependent Effect | Activity (K562 [11]): inactive

pKi [1]: 6.89
Structure (SMILES): Cc1cc(OCCCn2c(C)c(S(=O)(=O)c3ccc(-c4ccccc4)cc3)c(C)c2C(=O)O)cc(C)c1Cl

pKi [1]: 5.72
Structure (SMILES): Cc1cc(OCCCn2c(C)c(S(=O)(=O)c3ccccn3)c(C)c2C(=O)O)cc(C)c1Cl

pKi [1]: 5.60
Structure (SMILES): CCc1c(S(=O)(=O)c2ccc(C)cc2)c(C)c(C(=O)O)n1CCCOc1cc(C)c(Cl)c(C)c1

pKi [1]: 6.70
Structure (SMILES): COc1cccc(S(=O)(=O)c2c(C)c(C(=O)O)n(CCCOc3cc(C)c(Cl)c(C)c3)c2C)c1

pKi [1]: 5.70
Structure (SMILES): Cc1cc(OCCCn2c(C)c(S(=O)(=O)Cc3ccccc3)c(C)c2C(=O)O)cc(C)c1Cl

pKi [1]: 6.42
Structure (SMILES): Cc1cc(OCCCn2c(C)c(S(=O)(=O)c3ccc(C(=O)c4ccccc4)cc3)c(C)c2C(=O)O)cc(C)c1Cl

pIC50 (NCI-H23): 6.72 | pIC50 (K562 [3]): 4.53 | pIC50 (SK-BR-3): 4.52 | pIC50 (MV4-11 [4]): 7.62 | pIC50 (NCI-H929 [6]): 7.44
Structure (SMILES): Cc1c2c(nn1C)CSCc1cc(n(C)n1)CSc1cc(c3ccccc3c1)OCCCc1c(C(=O)O)n(C)c3c-2c(Cl)ccc13 [AZD-5991]
T/C (MV4-11 [12]): 5.18% | Activity (MV4-11 [13]): Active

pKi [1]: < 5.00
Structure (SMILES): Cc1cc(OCCCn2c(C)c(S(=O)(=O)c3ccccc3Br)c(C)c2C(=O)O)cc(C)c1Cl

pKi [1]: 6.44
Structure (SMILES): Cc1cc(OCCCn2c(C)c(S(=O)(=O)c3cccc4ccccc34)c(C)c2C(=O)O)cc(C)c1Cl
